In one experiment the target is RBP4-TTR interaction (Homo sapiens (Human), UniProt P02753). Kind of experiment: TR-FRET (HTRF) assay for retinol-induced RBP4-TTR interaction. The format is biochemical. The note with it: in the presence of 1 μM retinol; read-out: HTRF assay for antagonists of RBP4-TTR interaction: IC50. From the text:
TR-FRET assay for retinol-induced RBP4-TTR interaction Binding of a desired RBP4 antagonist displaces retinol and induces hindrance for RBP4-TTR interaction resulting in the decreased FRET signal (FIG. 7). Bacterially expressed MBP-RBP4 and untagged TTR were used in this assay. […] Following cell lysis, recombinant RBP4 was purified from the soluble fraction using the ACTA FPLC system (GE Healthcare) equipped with the 5-ml the MBP Trap HP column. Human untagged TTR was purchased from Calbiochem. Untagged TTR was labeled directly with Eu^3+ Cryptate-NHS using the HTRF Cryptate Labeling kit from CisBio following the manufacturer's recommendations. HTRF assay was performed in white low volume 384 well plates (Greiner-Bio) in a final assay volume of 16 μl per well. The reaction buffer contained 10 mM Tris-HCl pH 7.5, 1 mM DTT, 0.05% NP-40, 0.05% Prionex, 6% glycerol, and 400 mM KF. […] Titration of test compounds in this assay was conducted in the presence of 1 μM retinol. All reactions were assembled in the dark under dim red light and incubated overnight at +4° C. wrapped in aluminum foil. TR-FRET signal was measured in the SpectraMax M5e Multimode Plate Reader (Molecular Device). […] The TR-FRET signal was expressed as the ratio of fluorescence intensity: Flu665/Flu620×10,000.
(In general: In TR-FRET formats the signal depends on donor and acceptor labels being close together.)

Another experiment deals with RBP4 (Homo sapiens (Human), UniProt P02753). As to the kind of experiment: Scintillation proximity (SPA) RBP4 binding assay. The note with it: 10 nM 3H-Retinol, 50 nM biotinylated RBP4. Here is the method: Scintillation Proximity RBP4 Binding Assay
Untagged human RBP4 purified from urine of tubular proteinuria patients was purchased from Fitzgerald Industries International. It was biotinylated using the EZ-Link Sulfo-NHS-LC-Biotinylation kit from Pierce following the manufacturer's recommendations. Binding experiments were performed in 96-well plates (OptiPlate, PerkinElmer) in a final assay volume of 100 μl per well in SPA buffer (IX PBS, pH 7.4, 1 mM EDTA, 0.1% BSA, 0.5% CHAPS). The reaction mix contained 10 nM ^3H-Retinol (48.7 Ci/mmol; PerkinElmer), 0.3 mg/well Streptavidin-PVT beads, 50 nM biotinylated RBP4 and a test compound. Nonspecific binding was determined in the presence of 20 μM of unlabeled retinol. The reaction mix was assembled in the dark under dim red light. The plates were sealed with clear tape (TopSeal-A: 96-well microplate, PerkinElmer), wrapped in the aluminum foil, and allowed to equilibrate 6 hours at room temperature followed by overnight incubation at +4° C. Radiocounts were measured using a TopCount NXT counter (Packard Instrument Company).
On the technique in general: SPA uses beads or plates that emit light when radiolabelled molecules are held near them.

The results in this text go back to patent publication US9434727B2, “Substituted 4-phenylpiperidines, their preparation and use” (THE TRUSTEES OF COLUMBIA UNIVERSITY IN THE CITY OF NEW YORK, priority 2014, dated 2016).

The structures appear in SMILES notation. pIC50: −log10 of the molar value.

In general, pIC50 refers to −log10 of the IC50, conventionally taken in molar units.

For `CNC(=O)N1Cc2[nH]nc(C(=O)N3CCC(c4ccc(F)c(F)c4C(F)(F)F)CC3)c2C1` [Compound 100, 3-(4-(3,4-difluoro-2-(trifluoromethyl)phenyl)piperidine-1-carbonyl)-N-methyl-4,6-dihydropyrrolo[3,4-c]pyrazole-5(1H)-carboxamide], the pIC50 on RBP4-TTR interaction was 7.52; at RBP4 it was 7.71.
The corresponding values for `COC(=O)N1Cc2[nH]nc(C(=O)N3CCC(c4ccc(F)c(F)c4C(F)(F)F)CC3)c2C1` [Compound 101, methyl 3-(4-(3,4-difluoro-2-(trifluoromethyl)phenyl)piperidine-1-carbonyl)-4,6-dihydropyrrolo[3,4-c]pyrazole-5(1H)-carboxylate] are 7.85 and 8.13.
Turning to `O=C(c1ccccc1)N1Cc2[nH]nc(C(=O)N3CCC(c4ccc(F)c(F)c4C(F)(F)F)CC3)c2C1` [Compound 102, (5-benzoyl-1,4,5,6-tetrahydropyrrolo[3,4-c]pyrazol-3-yl)(4-(3,4-difluoro-2-(trifluoromethyl)phenyl)piperidin-1-yl)methanone], the results for the pIC50 at RBP4-TTR interaction and at RBP4 were 7.56 and 7.66, respectively.
For the compound `O=C(c1cccnc1)N1Cc2[nH]nc(C(=O)N3CCC(c4ccc(F)c(F)c4C(F)(F)F)CC3)c2C1` [Compound 104, (4-(3,4-difluoro-2-(trifluoromethyl)phenyl)piperidin-1-yl)(5-nicotinoyl-1,4,5,6-tetrahydropyrrolo[3,4-c]pyrazol-3-yl)methanone], the negative logarithm of the IC50 (pIC50) on RBP4-TTR interaction was 7.66; at RBP4, 7.72.
As to `O=C(c1n[nH]c2c1CN(C(=O)N1CCCC1)C2)N1CCC(c2ccc(F)c(F)c2C(F)(F)F)CC1` [Compound 106, (4-(3,4-difluoro-2-(trifluoromethyl)phenyl)piperidin-1-yl)(5-(pyrrolidine-1-carbonyl)-1,4,5,6-tetrahydropyrrolo[3,4-c]pyrazol-3-yl)methanone], the pIC50 on RBP4-TTR interaction was 7.53; at RBP4, 7.69.
For `O=C(c1n[nH]c2c1CN(CC(F)(F)F)C2)N1CCC(c2ccc(F)c(F)c2C(F)(F)F)CC1` [Compound 107] the same measures were 7.11 and 7.63.
The corresponding values for `O=C(c1n[nH]c2c1CN(CCC(F)(F)F)C2)N1CCC(c2ccc(F)c(F)c2C(F)(F)F)CC1` [Compound 108, (4-(3,4-difluoro-2(trifluoromethyl)phenyl)piperidin-1-yl)(5-(3,3,3-trifluoropropyl)-1,4,5,6-tetrahydropyrrolo[3,4-c]pyrazol-3-yl)methanone] are 7.31 and 7.60.
The corresponding values for `COCCN1Cc2[nH]nc(C(=O)N3CCC(c4ccc(F)c(F)c4C(F)(F)F)CC3)c2C1` [Compound 109, (4-(3,4-difluoro-2(trifluoromethyl)phenyl)piperidin-1-yl)(5-(2-methoxyethyl)-1,4,5,6-tetrahydropyrrolo[3,4-c]pyrazol-3-yl)methanone] are 7.38 and 7.83.
Consider `N#CN1Cc2[nH]nc(C(=O)N3CCC(c4ccc(F)c(F)c4C(F)(F)F)CC3)c2C1` [Compound 110, 3-(4-(3,4-difluoro-2-(trifluoromethyl)phenyl)piperidine-1-carbonyl)-4,6-dihydropyrrolo[3,4-c]pyrazole-5(1H)-carbonitrile], for which the negative logarithm of the IC50 (pIC50) at RBP4-TTR interaction and on RBP4 was 7.81 in each case.
As to `CCN1CCc2c(C(=O)N3CCC(c4ccc(F)c(F)c4C(F)(F)F)CC3)n[nH]c2C1` [Compound 111, (4-(3,4-Difluoro-2-(trifluoromethyl)phenyl)piperidin-1-yl)(6-ethyl-4,5,6,7-tetrahydro-1H-pyrazolo[3,4-c]pyridin-3-yl)methanone], the figures for the pIC50 on RBP4-TTR interaction and at RBP4 were 7.66 and 8.16, respectively.
The corresponding values for `CNC(=O)N1CCc2[nH]nc(C(=O)N3CCC(c4cccc(F)c4C(F)(F)F)CC3)c2C1` [Compound 114, 3-(4-(3-Fluoro-2-(trifluoromethyl)phenyl)piperidine-1-carbonyl)-N-methyl-6,7-dihydro-1H-pyrazolo[4,3-c]pyridine-5(4)-carboxamide] are 7.39 and 7.99.
For `O=C(O)CN1CCc2c(C(=O)N3CCC(c4ccc(F)c(F)c4C(F)(F)F)CC3)n[nH]c2C1` [Compound 115, 2-(3-(4-(3,4-Difluoro-2-(trifluoromethyl)phenyl)piperidine-1-carbonyl)-1,4,5,7-tetrahydro-6H-pyrazolo[3,4-c]pyridin-6-yl)acetic acid] the same measures were 6.96 and 7.72.
The corresponding values for `COC(=O)N1CCc2c(C(=O)N3CCC(c4ccc(F)c(F)c4C(F)(F)F)CC3)n[nH]c2C1` [Compound 116, Methyl 3-(4-(3,4-difluoro-2-(trifluoromethyl)phenyl)piperidine-1-carbonyl)-1,4,5,7-tetrahydro-6H-pyrazolo[3,4-c]pyridine-6-carboxylate] are 7.63 and 7.94.
`O=C(c1n[nH]c2c1CCN(C1COC1)C2)N1CCC(c2ccc(F)c(F)c2C(F)(F)F)CC1` [Compound 117, (4-(3,4-Difluoro-2-(trifluoromethyl)phenyl)piperidin-1-yl)(6-(oxetan-3-yl)-4,5,6,7-tetrahydro-1H-pyrazolo[3,4-c]pyridin-3-yl)methanone]: the pIC50 was 7.42 at RBP4-TTR interaction and 8.26 at RBP4.
The corresponding values for `O=C(c1n[nH]c2c1CCN(CC1CC1)C2)N1CCC(c2ccc(F)c(F)c2C(F)(F)F)CC1` [Compound 118, (6-(Cyclopropylmethyl)-4,5,6,7-tetrahydro-1Hpyrazolo[3,4-c]pyridin-3-yl)(4-(3,4-difluoro-2-(trifluoromethyl)phenyl)piperidin-1-yl)methanone] are 7.85 and 8.03.
With `O=C(c1n[nH]c2c1CCN(CCC(F)(F)F)C2)N1CCC(c2ccc(F)c(F)c2C(F)(F)F)CC1` [Compound 119, (4-(3,4-Difluoro-2(trifluoromethyl)phenyl)piperidin-1-yl)(6-(3,3,3-trifluoropropyl)-4,5,6,7-tetrahydro-1H-pyrazolo[3,4-c]pyridin-3-yl)methanone], the pIC50 was 7.40 at RBP4-TTR interaction and 7.97 on RBP4.
Consider `CCC(=O)N1CCc2c(C(=O)N3CCC(c4ccc(F)c(F)c4C(F)(F)F)CC3)n[nH]c2C1` [Compound 122, 1-(3-(4-(3,4-Difluoro-2-(trifluoromethyl)phenyl)piperidine-1-carbonyl)-1,4,5,7-tetrahydro-6H-pyrazolo[3,4-c]pyridin-6-yl)propan-1-one], for which the negative-log IC50 (pIC50) at RBP4-TTR interaction is 7.56; on RBP4 it was 7.77.
The corresponding values for `CC(C)CC(=O)N1CCc2c(C(=O)N3CCC(c4ccc(F)c(F)c4C(F)(F)F)CC3)n[nH]c2C1` [Compound 123, 1-(3-(4-(3,4-Difluoro-2-(trifluoromethyl)phenyl)piperidine-1-carbonyl)-1,4,5,7-tetrahydro-6H-pyrazolo[3,4-c]pyridin-6-yl)-3-methylbutan-1-one] are 7.28 and 7.82.
For `CC(C)(C)CN1CCc2c(C(=O)N3CCC(c4ccc(F)c(F)c4C(F)(F)F)CC3)n[nH]c2C1` [Compound 126, (4-(3,4-Difluoro-2(trifluoromethyl)phenyl)piperidin-1-yl)(6-neopentyl-4,5,6,7-tetrahydro-1H-pyrazolo[3,4-c]pyridin-3-yl)methanone] the same measures were 6.77 and 7.77.
For `COCCN1CCc2[nH]nc(C(=O)N3CCC(c4cc(F)cc(F)c4C(F)(F)F)CC3)c2C1` [Compound 127, (4-(3,5-Difluoro-2-(trifluoromethyl)phenyl)piperidin-1-yl)(5-(2-methoxyethyl)-4,5,6,7-tetrahydro-1H-pyrazolo[4,3-c]pyridin-3-yl)methanone] the same measures were 7.77 and 7.80.
As to `O=C(c1n[nH]c2c1CN(CCC(F)(F)F)CC2)N1CCC(c2cc(F)cc(F)c2C(F)(F)F)CC1` [Compound 129, (4-(3,5-Difluoro-2-(trifluoromethyl)phenyl)piperidin-1-yl)(5-(3,3,3-trifluoropropyl)-4,5,6,7-tetrahydro-1H-pyrazolo[4,3-c]pyridin-3-yl)methanone], the pIC50 at RBP4-TTR interaction is 7.71; on RBP4 it was 7.86.
For `COC(=O)N1CCc2c(C(=O)N3CCC(c4cc(F)cc(F)c4C(F)(F)F)CC3)n[nH]c2C1` [Compound 130, Methyl 3-(4-(3,5-difluoro-2-(trifluoromethyl)phenyl)piperidine-1-carbonyl)-1,4,5,7-tetrahydro-6H-pyrazolo[3,4-c]pyridine-6-carboxylate] the same measures were 7.83 and 7.89.
